Data taken from patent US20070276020A1, “Dicationic Compounds For Activity Against Trichomonas Vaginalis” (priority 2004, published 2007).
Where a name gives a salt, the structure may show the parent alone. Read-outs that look alike come from different tables or passages of the source.

Experiments:
[1] = test system: T. vaginalis CDC reference strain 520 (metronidazole-sensitive); assay: IC50 assay, tritiated thymidine incorporation, 48 h, metronidazole-sensitive strain 520; type: cell-based, Trichomonas vaginalis; conditions: for IC50: Trichomonas vaginalis
Description: (§1) CDC reference strains 085 and 520 that are metronidazole resistant and sensitive, respectively, were maintained at 37° C. in Diamond's trypticase-yeast-maltose medium (TYM; pH 6.0). Metronidazole, tinidazole, pentamidine, and berenil were purchased from Sigma Chemical Co. (St. Louis, Mo., United States of America). Compound 1, see Das, B. P. and D. W. Boykin, J. Med. Chem., 20, 531-536 (1977); Compound 2, see Boykin, D. W., et al., Bioorganic and Med. Chem. Lett., 6:3017-3020 (1996); Compound 3 and Compound 4, see Boykin, D. W., et al., J. Med. Chem., 41, 124-129 (1998); Compound 6, see Francesconi, I., et al., J. Med. Chem., 42, 2260-2265 (1999); Compound 5, see Stephens, C., et al., J. Med. Chem., 44, 1741-1748 (2001); and Compound 9, see Mallena, S. et al., J. Am. Chem. Soc., 126, 13659-13669 (2004); were synthesized as previously reported. Purity was determined by NMR and TLC. The syntheses of 7 and 8 are outlined below. See also Crowell, A. L., et al., Antimicrob. Agents Chemother., 48, 3602-3605 (2004), which is incorporated herein by reference in its entirety.
(§2) Compounds were dissolved in dimethyl sulfoxide (DMSO, Sigma) and further diluted with Diamond's TYM media to reach assay concentrations. Two types of assays were performed on the cationic compounds being evaluated. An initial screen was performed using the standard MLC assay, see Crowell, A. L., et al., Antimicrob. Agents Chemother., 47, 1407-1409 (2003); Meingassner, J. G. and J. Thurner, Antimicrob. Agents Chemother., 15, 254-257 (1979), with a maximum concentration of 20 μM for the test compounds. After 48 h of incubation at 37° C., plates were examined using an inverted phase-contrast microscope. The lowest drug concentration at which no motile trichomonads were observed was recorded as the MLC. Each compound was tested at least twice under both aerobic and anaerobic conditions. Anaerobic conditions were generated using a GASPAK™ jar and CO2-generating GASPAK™ Plus anaerobic system envelopes (Becton Dickinson, Sparks, Md., United States of America) and monitored with GASPAK™ disposable anaerobic indicator strips (Becton Dickinson). […] To further evaluate the compounds' activity, a second type of assay was used to determine the concentration at which 50% of the parasite growth was inhibited (IC50). In these assays, 0.5 μCi of tritiated thymidine (Perkin-Elmer, Boston, Mass., United States of America) was added to each well of a standard assay at the initiation of culture. At 48 h of incubation under either aerobic or anaerobic conditions, cells were harvested onto glass fiber filters (Wallac, Turku, Finland) using a TOMTEC™ cell harvester (Hamden, Conn., United States of America). Incorporated thymidine was detected using BETAPLATE™ (Wallac) scintillation fluid and plate reader. The resulting counts per minute over the compound's concentration range were utilized to calculate IC50s using GRAPHPAD™ PRISM™ (GraphPad Software, Inc., San Diego, Calif., United States of America).

T. vaginalis = assay: In vitro assays against T. vaginalis, overall statement in words; type: cell-based, Trichomonas vaginalis
Description: as §2

[2] = test system: T. vaginalis CDC reference strain 085 (metronidazole-resistant); assay: IC50 assay, tritiated thymidine incorporation, 48 h, metronidazole-resistant strain 085; type: cell-based, Trichomonas vaginalis
Description: as §1, §2

[3] = test system: different protozoal infection; conditions: experimental model; cited from earlier work
[4] = test system: trichomoniasis infections; conditions: cited from earlier work
[5] = metronidazole-sensitive strain 520, aerobic, 48 h
[6] = metronidazole-sensitive strain 520, anaerobic, 48 h
[7] = metronidazole-resistant strain 085, aerobic, 48 h
[8] = metronidazole-resistant strain 085, anaerobic, 48 h
[9] = 48 h, read-out: IC50 values (μM ± SEM) 520 aerobic
[10] = 48 h, read-out: IC50 values (μM ± SEM) 520 anaerobic
[11] = Trichomonas vaginalis, 48 h, read-out: IC50 values (μM ± SEM) 085 aerobic
[12] = Trichomonas vaginalis, 48 h, read-out: IC50 values (μM ± SEM) 085 anaerobic
[13] = metronidazole-sensitive strain 520, aerobic, 48 h, read-out: IC50 values (μM ± SEM) 520 aerobic
[14] = metronidazole-sensitive strain 520, anaerobic, 48 h, read-out: IC50 values (μM ± SEM) 520 anaerobic
[15] = Trichomonas vaginalis, metronidazole-resistant strain 085, aerobic, 48 h, read-out: IC50 values (μM ± SEM) 085 aerobic
[16] = Trichomonas vaginalis, metronidazole-resistant strain 085, anaerobic, 48 h, read-out: IC50 values (μM ± SEM) 085 anaerobic

## 4,4′-Bis{2-[(4-amidino)benzimidazolyl]}biphenyl tetrahydrochloride [Compound 7]
[1]
  activity against metronidazole-sensitive 520 isolate: not
[1]; [5]
  IC50 values (μM ± SEM) 520 aerobic: no effect
[1]; [6]
  IC50 values (μM ± SEM) 520 anaerobic: no effect
T. vaginalis
  effectiveness against T. vaginalis in vitro: effective anti-trichomonads
[2]
  activity against metronidazole-resistant 085 strain: has activity
[2]; metronidazole-resistant strain 085, aerobic, 48 h, read-out: IC50 values (μM ± SEM) 085 aerobic
  IC50: 7.79 ± 4.2 µM
[2]; metronidazole-resistant strain 085, anaerobic, 48 h, read-out: IC50 values (μM ± SEM) 085 anaerobic
  IC50: 25.3 ± 43.1 µM

## CC(C)NC(=N)c1ccc2nc(-c3ccc4oc(-c5nc6ccc(C(=N)NC(C)C)cc6[nH]5)cc4c3)[nH]c2c1 (as salt: hydrochloride) [Compound 8, 2,5-Bis{2-[5-(N-isopropylamidino)benzimidazoyl]}benzo[b]furan tetrahydrochloride]
other
  melting point: 285 to 290 °C

## CC(=O)NCC(=O)O.CC(=O)NCC(=O)O.N=C(N)c1ccc(N=NNc2ccc(C(=N)N)cc2)cc1 [Berenil, reference compound]
[1]; [5]
  IC50 values (μM ± SEM) 520 aerobic: no effect
[1]; [6]
  IC50 values (μM ± SEM) 520 anaerobic: no effect
T. vaginalis
  effectiveness against T. vaginalis in vitro: not effective
[2]; [7]
  IC50 values (μM ± SEM) 085 aerobic: no effect
[2]; [8]
  IC50 values (μM ± SEM) 085 anaerobic: no effect

## N=C(N)c1ccc(-c2ccc(-c3ccc(C(=N)N)cc3)o2)cc1 [Compound 1, 2,5-Bis(4-amidinophenyl)furan]
[1]
  activity against metronidazole-sensitive 520 isolate: good activity
[1]; [9]
  IC50: 18.6 ± 6.43 µM
[1]; [10]
  IC50: 57.9 ± 19.6 µM
[2]; [11]
  IC50: 8.12 ± 2.45 µM
[2]; [12]
  IC50: 18.6 ± 19.8 µM
[2]; aerobic conditions
  effectiveness versus metronidazole and tinidazole against resistant strain 085: clearly more effective

## CONC(=N)c1ccc(-c2ccc(-c3ccc(C(=N)NOC)cc3)o2)cc1 [Compound 2, 2,5-Bis[4-(O-methyloxyamidino)phenyl]furan]
[1]; [5]
  IC50 values (μM ± SEM) 520 aerobic: no effect
[1]; [6]
  IC50 values (μM ± SEM) 520 anaerobic: no effect
T. vaginalis
  effectiveness against T. vaginalis in vitro: generally ineffective
[2]; [11]
  IC50: 39.1 ± 25.1 µM
[2]; [8]
  IC50 values (μM ± SEM) 085 anaerobic: no effect

## CC(C)NC(=N)c1ccc(-c2ccc(-c3ccc(C(=N)NC(C)C)cc3)o2)cc1 [Compound 3, 2,5-Bis[4-(N-isopropylamidino)phenyl]furan]
[1]; [9]
  IC50: 6.6 ± 1.76 µM
[1]; [10]
  IC50: 3.91 ± 1.06 µM
[2]; [11]
  IC50: 6.44 ± 3.89 µM
[2]; [12]
  IC50: 9.41 ± 7.92 µM

## N=C(NC1CCCCC1)c1ccc(-c2ccc(-c3ccc(C(=N)NC4CCCCC4)cc3)o2)cc1 [Compound 4, 2,5-Bis[4-(N-cyclohexylamidino)phenyl]-furan]
[1]; [9]
  IC50: 15.9 ± 0.74 µM
[1]; [10]
  IC50: 13.9 ± 3.74 µM
[2]; [11]
  IC50: 22.4 ± 13.7 µM
[2]; [12]
  IC50: 10.2 ± 8.47 µM

## N=C(N)Nc1ccc(-c2ccc(-c3ccc(NC(=N)N)cc3)o2)cc1 [Compound 5, 2,5-Bis-(4-guanidinophenyl)furan]
[1]; [5]
  IC50 values (μM ± SEM) 520 aerobic: no effect
[1]; [6]
  IC50 values (μM ± SEM) 520 anaerobic: no effect
T. vaginalis
  effectiveness against T. vaginalis in vitro: not effective
[2]; [7]
  IC50 values (μM ± SEM) 085 aerobic: no effect
[2]; [8]
  IC50 values (μM ± SEM) 085 anaerobic: no effect

## N=C(N)c1ccc(-c2coc(-c3ccc(C(=N)N)cc3)c2)cc1 [Compound 6, 3,5-Bis(4-amidophenyl)furan]
[1]; [5]
  IC50 values (μM ± SEM) 520 aerobic: no effect
[1]; [6]
  IC50 values (μM ± SEM) 520 anaerobic: no effect
T. vaginalis
  effectiveness against T. vaginalis in vitro: not effective
[2]; [7]
  IC50 values (μM ± SEM) 085 aerobic: no effect
[2]; [8]
  IC50 values (μM ± SEM) 085 anaerobic: no effect

## CC(C)NC(=N)c1ccc2nc(-c3ccc4oc(-c5nc6ccc(C(=N)NC(C)C)cc6[nH]5)cc4c3)[nH]c2c1 [Compound 8, 2,5-Bis{2-[5-(N-isopropylamidino)benzimidazoyl]}benzo[b]furan tetrahydrochloride]
[1]; [9]
  IC50: 44.7 ± 9.33 µM
[1]; [10]
  IC50: 143 ± 127 µM
T. vaginalis
  effectiveness against T. vaginalis in vitro: effective anti-trichomonads
[2]; [11]
  IC50: 7.27 ± 3.76 µM
[2]; [12]
  IC50: 37.6 ± 43.9 µM

## N=C(N)c1ccc(-c2ccc(-c3nc4ccc(C(=N)N)cc4[nH]3)s2)cc1 [Compound 9, 2-(4-Amidinophenyl)-5-[2-(5-amidinobenzimidazoyl)]thiophene]
[1]; [9]
  IC50: 0.98 ± 0.19 µM
[1]; [10]
  IC50: 1.24 ± 0.39 µM
[1]; read-out: IC50 values
  IC50: ≤ 1 µM
T. vaginalis
  effectiveness against T. vaginalis in vitro: most effective dication
[3]
  in vivo treatment of a different protozoal infection: successfully used
  toxicity to the host: without overt evidence of toxicity
[2]; [11]
  IC50: 0.27 ± 0.04 µM
[2]; [12]
  IC50: 0.5 ± 0.42 µM
[2]; Trichomonas vaginalis, read-out: IC50 values
  IC50: ≤ 1 µM

## Cc1ncc([N+](=O)[O-])n1CCO [Metronidazole, reference compound]
[1]; [13]
  IC50: 18.2 ± 4.25 µM
[1]; [14]
  IC50: 1.89 ± 0.77 µM
[4]
  infections successfully treated: 90-95%
[2]; [15]
  IC50: 303 ± 22.2 µM
[2]; [16]
  IC50: 12.3 ± 23.8 µM

## N=C(N)c1ccc(OCCCCCOc2ccc(C(=N)N)cc2)cc1 [Pentamidine, reference compound]
[1]; [5]
  IC50 values (μM ± SEM) 520 aerobic: no effect
[1]; [6]
  IC50 values (μM ± SEM) 520 anaerobic: no effect
T. vaginalis
  effectiveness against T. vaginalis in vitro: not effective
[2]; [7]
  IC50 values (μM ± SEM) 085 aerobic: no effect
[2]; [8]
  IC50 values (μM ± SEM) 085 anaerobic: no effect

## CCS(=O)(=O)CCn1c([N+](=O)[O-])cnc1C [Tinidazole, reference compound]
[1]; [13]
  IC50: 1.48 ± 0.12 µM
[1]; [14]
  IC50: 0.004 µM
[2]; [15]
  IC50: 45.1 ± 5.38 µM
[2]; [16]
  IC50: 4.81 ± 1.17 µM
